Measurements published in ChEMBL document CHEMBL1201862, “PubChem BioAssay data set” (2004).
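Following 48 hours of exposure in 96-well plates, responses at five concentrations were used to interpolate endpoints linearly. Abbreviation: GI50, concentration required for 50% inhibition of growth.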 Calls of active or inactive are those of the source. Cut-off read from the data, not from the text of the source: active = GI50 up to about 1.1 µM and inactive = higher.

What was measured:
Experiment in all cases: DTP human tumour cell line panel, 48 h
NCI/ADR-RES = tested on: NCI/ADR-RES
IGROV-1 = tested on: IGROV-1
Malme-3M = tested on: Malme-3M
HCT-116 = tested on: HCT-116
RXF 393 = tested on: RXF 393
HCT-15 = tested on: HCT-15
SF-295 = tested on: SF-295
Hs-578T = tested on: Hs-578T
MDA-MB-435 = tested on: MDA-MB-435
RPMI-8226 = tested on: RPMI-8226
MOLT-4 = tested on: MOLT-4
A498 = tested on: A498
OVCAR-5 = tested on: OVCAR-5
SW-620 = tested on: SW-620
OVCAR-3 = tested on: OVCAR-3
SK-MEL-2 = tested on: SK-MEL-2
T47D = tested on: T47D
HOP-62 = tested on: HOP-62
HL-60 = tested on: HL-60

## Cc1nc2ccccc2c(=O)n1-c1n[nH]c2ccccc12
NCI/ADR-RES
  GI50: > 100 µM (inactive)
IGROV-1
  GI50: > 100 µM (inactive)
Malme-3M
  GI50: > 100 µM (inactive)
HCT-116
  GI50: > 100 µM (inactive)
RXF 393
  GI50: > 100 µM (inactive)
HCT-15
  GI50: > 100 µM
SF-295
  GI50: > 100 µM (inactive)
Hs-578T
  GI50: > 100 µM (inactive)
MDA-MB-435
  GI50: > 100 µM (inactive)
RPMI-8226
  GI50: > 100 µM (inactive)
MOLT-4
  GI50: > 100 µM (inactive)
A498
  GI50: > 100 µM (inactive)
OVCAR-5
  GI50: > 100 µM (inactive)
SW-620
  GI50: > 100 µM (inactive)
OVCAR-3
  GI50: > 100 µM (inactive)
SK-MEL-2
  GI50: > 100 µM (inactive)
T47D
  GI50: > 100 µM (inactive)
HOP-62
  GI50: > 100 µM (inactive)

## O=[N+]([O-])/C=C/c1cc2ccc3ccccc3c2[nH]1
NCI/ADR-RES
  GI50: 2.42 µM (inactive)
IGROV-1
  GI50: 0.527 µM (active)
Malme-3M
  GI50: 1.55 µM (inactive)
HCT-116
  GI50: 1.52 µM (inactive)
RXF 393
  GI50: 1.43 µM (inactive)
HCT-15
  GI50: 1.72 µM
SF-295
  GI50: 2.4 µM (inactive)
Hs-578T
  GI50: 3.56 µM (inactive)
HL-60
  GI50: 2.12 µM (inactive)
MDA-MB-435
  GI50: 1.69 µM (inactive)
RPMI-8226
  GI50: 0.229 µM (active)
MOLT-4
  GI50: 0.776 µM (active)
A498
  GI50: 1.23 µM (inactive)
OVCAR-5
  GI50: 2.29 µM (inactive)
SW-620
  GI50: 1.49 µM (inactive)
OVCAR-3
  GI50: 1.55 µM (inactive)
SK-MEL-2
  GI50: 0.796 µM (active)
T47D
  GI50: 1.31 µM (inactive)
HOP-62
  GI50: 1.98 µM (inactive)

## C/C(=N\Nc1nc2cc(C)ccc2s1)c1ccccn1
NCI/ADR-RES
  GI50: 0.261 µM (active)
IGROV-1
  GI50: 0.199 µM (active)
Malme-3M
  GI50: 0.332 µM (active)
HCT-116
  GI50: 0.213 µM (active)
RXF 393
  GI50: 3.63 µM (inactive)
HCT-15
  GI50: 0.272 µM
SF-295
  GI50: 1.15 µM (inactive)
Hs-578T
  GI50: 1.29 µM (inactive)
HL-60
  GI50: 0.158 µM (active)
MDA-MB-435
  GI50: 0.982 µM (active)
RPMI-8226
  GI50: 0.273 µM (active)
MOLT-4
  GI50: < 0.0246 µM (active)
A498
  GI50: 1.09 µM (active)
OVCAR-5
  GI50: 0.661 µM (active)
SW-620
  GI50: 0.209 µM (active)
OVCAR-3
  GI50: 0.441 µM (active)
SK-MEL-2
  GI50: 0.4 µM (active)
T47D
  GI50: 0.589 µM (active)
HOP-62
  GI50: 0.294 µM (active)

## COC(=O)CCCC(=O)/C(=N\Nc1ccc(Cl)cc1)Nc1c(Cl)cccc1Cl
NCI/ADR-RES
  GI50: > 74.1 µM (inactive)
IGROV-1
  GI50: > 81.7 µM (inactive)
Malme-3M
  GI50: 97.1 µM (inactive)
HCT-116
  GI50: 38.9 µM (inactive)
RXF 393
  GI50: 8.69 µM (inactive)
HCT-15
  GI50: 72.3 µM
SF-295
  GI50: 35.2 µM (inactive)
Hs-578T
  GI50: 42.8 µM (inactive)
HL-60
  GI50: 7.06 µM (inactive)
MDA-MB-435
  GI50: 76.7 µM (inactive)
RPMI-8226
  GI50: 21.8 µM (inactive)
MOLT-4
  GI50: 26 µM (inactive)
A498
  GI50: 29.5 µM (inactive)
OVCAR-5
  GI50: > 100 µM (inactive)
SW-620
  GI50: > 100 µM (inactive)
OVCAR-3
  GI50: 55.5 µM (inactive)
SK-MEL-2
  GI50: 24.6 µM (inactive)
T47D
  GI50: > 46.5 µM (inactive)
HOP-62
  GI50: > 67.6 µM (inactive)

## COC(=O)C1=C(C(=O)OC)SC(=C2SCSC3=C2SC(C(=O)OC)=C(C(=O)OC)C32SC3=C(CCCC3)S2)S1
NCI/ADR-RES
  GI50: > 100 µM (inactive)
IGROV-1
  GI50: > 100 µM (inactive)
Malme-3M
  GI50: > 100 µM (inactive)
HCT-116
  GI50: > 100 µM (inactive)
RXF 393
  GI50: 19.4 µM (inactive)
HCT-15
  GI50: > 100 µM
SF-295
  GI50: 83.9 µM (inactive)
Hs-578T
  GI50: > 100 µM (inactive)
HL-60
  GI50: > 100 µM (inactive)
MDA-MB-435
  GI50: > 100 µM (inactive)
MOLT-4
  GI50: > 100 µM (inactive)
A498
  GI50: 99.8 µM (inactive)
OVCAR-5
  GI50: > 100 µM (inactive)
SW-620
  GI50: > 100 µM (inactive)
OVCAR-3
  GI50: > 100 µM (inactive)
SK-MEL-2
  GI50: > 100 µM (inactive)
T47D
  GI50: > 100 µM (inactive)
HOP-62
  GI50: > 100 µM (inactive)

## O=C(Nc1ccc(Cl)cc1)c1cc2c(cc1Cl)SC(NNCCO)=NS2(=O)=O
NCI/ADR-RES
  GI50: > 100 µM (inactive)
IGROV-1
  GI50: > 100 µM (inactive)
HCT-116
  GI50: > 100 µM (inactive)
RXF 393
  GI50: > 100 µM (inactive)
HCT-15
  GI50: > 100 µM
SF-295
  GI50: > 100 µM (inactive)
Hs-578T
  GI50: > 100 µM (inactive)
HL-60
  GI50: > 100 µM (inactive)
MDA-MB-435
  GI50: > 100 µM (inactive)
RPMI-8226
  GI50: > 100 µM (inactive)
MOLT-4
  GI50: > 100 µM (inactive)
A498
  GI50: 17.6 µM (inactive)
SW-620
  GI50: > 100 µM (inactive)
SK-MEL-2
  GI50: > 100 µM (inactive)
T47D
  GI50: 24.8 µM (inactive)
HOP-62
  GI50: > 100 µM (inactive)

## COc1ccc2c3c(ccc2c1)NC(C(=O)O)CC3 (stereo not drawn)
NCI/ADR-RES
  GI50: 46.3 µM (inactive)
IGROV-1
  GI50: 40.8 µM (inactive)
Malme-3M
  GI50: > 100 µM (inactive)
HCT-116
  GI50: 80.2 µM (inactive)
RXF 393
  GI50: > 100 µM (inactive)
HCT-15
  GI50: 51.8 µM
SF-295
  GI50: 58.5 µM (inactive)
Hs-578T
  GI50: 50.4 µM (inactive)
HL-60
  GI50: 26.1 µM (inactive)
MDA-MB-435
  GI50: 60.4 µM (inactive)
RPMI-8226
  GI50: 17.1 µM (inactive)
MOLT-4
  GI50: 19.5 µM (inactive)
A498
  GI50: 27.7 µM (inactive)
OVCAR-5
  GI50: > 100 µM (inactive)
SW-620
  GI50: 35.2 µM (inactive)
OVCAR-3
  GI50: 35.6 µM (inactive)
SK-MEL-2
  GI50: > 100 µM (inactive)
T47D
  GI50: 26.9 µM (inactive)
HOP-62
  GI50: 80.5 µM (inactive)
